PubChem BioAssay (NCI)
Several values for one entry are separate records, joined by “and”; a condition that tells them apart may be missing. Equal entries are not always repeated.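 Test compounds were applied to cells in 96-well plates for 48 hours at 5 doses. At the GI50, growth is halved. TGI marks complete inhibition of growth.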

Columns and labels:
Assay in all cases: NCI tumour cell line growth inhibition, 48 h
SF-539 CNS = tested on: SF-539 CNS
SNB-19 CNS = tested on: SNB-19 CNS
DLD-1 colon = tested on: DLD-1 colon
SK-MEL-5 melanoma = tested on: SK-MEL-5 melanoma
HCC-2998 colon = tested on: HCC-2998 colon
ACHN renal = tested on: ACHN renal
DU-145 prostate = tested on: DU-145 prostate
MDA-N = tested on: MDA-N
T-47D breast = tested on: T-47D breast
MDA-MB-231 breast = tested on: MDA-MB-231 breast

| SMILES | TGI (SF-539 CNS) | TGI (SNB-19 CNS) [µM] | TGI (DLD-1 colon) [µM] | TGI (SK-MEL-5 melanoma) [µM] | TGI (HCC-2998 colon) | TGI (ACHN renal) [µM] | TGI (DU-145 prostate) [µM] | TGI (MDA-N) | TGI (T-47D breast) | TGI (MDA-MB-231 breast) [µM] | GI50 (SF-539 CNS) [µM] | GI50 (SNB-19 CNS) [µM] | GI50 (DLD-1 colon) [µM] | GI50 (SK-MEL-5 melanoma) [µM] | GI50 (HCC-2998 colon) [µM] | GI50 (ACHN renal) [µM] |
| --- | --- | --- | --- | --- | --- | --- | --- | --- | --- | --- | --- | --- | --- | --- | --- | --- |
| CN(c1ccccc1)c1c(-c2ccccc2)c(=O)oc2c1ccc1occc12 | > 100 µM | > 100 | > 100 | > 100 | > 100 µM | – | – | – | – | – | – | – | – | – | – | – |
| CC12CC(=O)NN=C1c1ccccc1C2 (stereo not drawn) | > 100 µM | > 100 | > 100 | > 100 | > 100 µM | > 100 | – | – | – | – | – | – | – | – | – | – |
| O=c1c2cc(Cl)ccc2n2nnc3ccc(NCCNCCO)c1c32 | 3.32 µM | 5.07 | 5.76 | 2.86 | 2.7 µM | 2.43 | 8.91 | 2.32 µM | 7.52 µM | 2.81 | – | – | – | – | – | – |
| CC1Oc2c(c(O)cc3oc(=O)cc(-c4ccccc4)c23)C(=O)C1C (stereo not drawn) | > 100 µM | – | > 100 | > 100 | – | > 100 | – | – | – | – | – | – | – | – | – | – |
| Cc1ccc(NC(=O)NC23CC4CC(CC(F)(C4)C2)C3)cc1 | > 100 µM | > 100 | > 100 | > 100 | > 100 µM | > 100 | – | – | – | – | – | – | – | – | – | – |
| O.O=[Se](=O)(O)O.[NH-]C1CCCCC1[NH-].[Pt+2] (stereo not drawn) | > 100 µM | > 100 | > 100 | 15.6 | > 100 µM | – | – | – | – | – | 25.3 | > 50.7 | 19 | 7.4 | > 46.1 | – |
| COc1ccc(CNc2cnc3cc(N)ccc3n2)cc1OC | > 100 µM | > 100 | > 100 | > 100 | > 100 µM | > 100 | – | – | – | – | – | – | – | – | – | – |
| CC(=O)Nc1[nH]c(=O)[nH]c(=O)c1N(C(C)=O)C(C)=O | > 100 µM | > 100 | > 100 | > 100 | > 100 µM | > 100 | – | – | – | – | – | – | – | – | – | – |
| O=C(c1ccccc1)c1ccc2c(c1)N=C(c1ccc(Cl)c(Cl)c1)CC(c1ccc3ccccc3c1)N2 (stereo not drawn) | > 100 µM | > 100 | > 100 | > 100 | > 100 µM | > 100 | – | – | – | – | – | – | – | – | – | – |
| COc1ccc(/C(Cl)=C(\C=O)c2ccc(Cl)cc2)cc1 | – | 87.4 | > 100 | 32.6 | > 100 µM | 21.2 | – | – | – | – | – | – | – | – | – | – |
| C#Cc1ccccc1C(=O)OC | > 100 µM | > 100 | > 100 | > 100 | > 100 µM | > 100 | – | – | – | – | – | – | – | – | – | – |
| COc1cccc2c1C(=O)c1c(O)c3c(c(O)c1C2=O)C[C@](O)(C(=O)CO)CC3OC1CC(N)C(OC2CCCCO2)C(C)O1 (stereo partly drawn) | 1.41 µM | 4.16 | 12.5 | 1.34 | 3.25 µM | – | – | – | – | – | – | – | – | – | – | – |
| Nc1ncnc2c(C3OC(CO)C(O)C3O)c[nH]c12 (stereo not drawn) | 0.0546 µM and 0.0374 µM | 8.69 | 0.0413 | – | 0.247 µM and 0.343 µM | – | 0.113 | 0.158 µM and 0.138 µM | 0.0758 µM and 0.0275 µM | > 100 | < 0.0117 | – | – | 0.0187 | – | – |
| Fc1ccccc1C1SCC2=Nc3ccccc3CN21 (stereo not drawn) | > 100 µM | > 100 | – | > 100 | > 100 µM | > 100 | > 100 | > 100 µM | > 100 µM | > 100 | – | – | – | – | – | – |
| CC(CN(C)C)C(O)(c1ccccc1)c1ccccc1 (stereo not drawn) | > 100 µM | > 100 | – | > 100 | 93.2 µM | > 100 | > 100 | > 100 µM | > 100 µM | > 100 | – | – | – | – | – | – |
| COc1cc2c(cc1OCc1ccccc1)NC(=O)[C@@H]1C[C@@H](O)CN1C2=O | > 100 µM | > 100 | – | > 100 | > 100 µM | > 100 | > 100 | > 100 µM | > 100 µM | > 100 | – | – | – | – | – | – |
| C=C1C(=O)OC2C1CC1OC2C(C)CCC/C(C)=C\CCC1(C)O (stereo not drawn) | 48.7 µM | 103 | 64.8 | 12.4 | 63.5 µM | – | – | – | – | – | – | – | – | – | – | – |
| O=C(NC(Cc1c[nH]c2ccccc12)C(=O)O)/C(=C/c1ccccc1)NC(=O)c1ccccc1 (stereo not drawn) | > 100 µM | > 100 | – | > 100 | > 100 µM | > 100 | > 100 | > 100 µM | > 100 µM | > 100 | – | – | – | – | – | – |
| CCOC(=O)C1C2C1C1C(C(=O)OCC)C21 (stereo not drawn) | > 100 µM | > 100 | – | > 100 | > 100 µM | > 100 | > 100 | > 100 µM | > 100 µM | > 100 | – | – | – | – | – | – |
| O=C(O)c1cc2c(cc1CC(Cc1ccccc1)C(=O)O)CCC2 (stereo not drawn) | > 100 µM | > 100 | – | > 100 | > 100 µM | > 100 | > 100 | > 100 µM | > 100 µM | > 100 | – | – | – | – | – | – |
| CCOC(=O)Cn1c(C)nc2nn(Cc3ccccc3)cc2c1=O | > 100 µM | > 100 | – | > 100 | > 100 µM | > 100 | > 100 | > 100 µM | > 100 µM | > 100 | – | – | – | – | – | – |
| CCC[CH2][Ge]([CH2]CCC)([CH2]CCC)[O]C(=O)CCl | 6.85 µM | 22.9 | 15.7 | 3.36 | 7.63 µM | 18.4 | – | – | – | – | 1.65 | 10.8 | 0.122 | 0.305 | 1.32 | 2.71 |
| Cc1cn(C2CC(O)C(Cn3cc(Cn4nc(Br)c(=O)[nH]c4=O)nn3)O2)c(=O)[nH]c1=O (stereo not drawn) | > 100 µM | > 100 | – | > 100 | > 100 µM | > 100 | > 100 | > 100 µM | > 100 µM | > 100 | – | – | – | – | – | – |
| NC(=O)Nc1n[nH]c(-c2ccccc2)n1 | > 100 µM | > 100 | – | > 100 | > 100 µM | > 100 | > 100 | > 100 µM | > 100 µM | > 100 | – | – | – | – | – | – |
